Experimental data as given in patent US8945540B2, “Compositions for enhancing the antibacterial activity of myeloperoxidase and methods of use thereof” (Exoxemis, Inc., priority 2008, dated 2015).
Read-outs that look alike come from different tables or passages of the source.

Assays:
Staphylococcus aureus [1] = assay: Microbicidal activity of the myeloperoxidase system (p-MPO, glucose oxidase, glucose) with amino acids in the presence of blood, CFU plate counts; synergy determination from these CFU; format: cell-based; settings: for Average Viability CFU/ml 60 min / Log 10 (CFU + 1) Survivors 60 min / Log Reduction 60 min: MPO 38 U/ml, GO 33.3 U/ml; for Average Viability CFU/ml 50 min / Log Reduction 50 min: single amino acid 2.5 mM, MPO 4.7 U/ml, GO 4.2 U/ml
Method: Bacterial suspensions, specifically Staphylococcus aureus in this example, were prepared by the shake flask method to achieve late log to early stationary phase growth. Bacteria were grown 24 hours in trypticase soy broth (TSB) at 35° C. The cultures were centrifuged at 4,000 rpm for 10 minutes and the supernatants removed. The pellet was collected and washed twice with sterile 0.9% normal saline (NS). The washed microorganisms were suspended and diluted with normal saline to a 3 McFarland standard, i.e., approximately 10^9 bacteria colony forming units (CFU) per mL. Actual colony counts are confirmed by serial dilutions (10^−1 to 10^−5 or 10^−6) plated on TSA and incubated overnight at 35° C. To obtain an approximate final working target inoculum of 10^7 CFU/mL, 15 microliters of organisms per mL of final reaction mixture are used.
Glucose oxidase (GO) from Aspergillus Niger was purchased from Biozyme, Inc., UK, Cat #GO3A, 270 U/mg). Porcine Myeloperoxidase (p-MPO) (Exoxemis, Inc., Little Rock, Ark. U.S.A., 375 U/mg). Sterile stock solutions of D-glucose and sodium chloride were prepared and used at a final concentration of 150 mM each. L-Lysine hydrochloride (Spectrum Chemical Cat #L1142) was prepared as a 100 mM stock solution. Catalase (Sigma, Cat #C-40) was prepared as a 1% stock solution in sterile 0.9% normal saline. Blood was collected by venipuncture and used as whole blood within the same day.
Staphylococcus aureus were used to give a final target concentration of 2-3×10^7 CFU (7.4 log 10) per mL and venous whole blood was used to give a final concentration of 3%. Glucose was added to the reaction mixtures to a final concentration of 150 mM, which initiated the microbicidal reaction. The final volume of the reaction mixtures was 1 mL. The reactions were allowed to run from 30 minutes to 2 hours, as needed, at room temperature or at 37° C. in a dry bath. At the specified time points the reaction mixtures were treated with 100 microliters of a catalase solution, containing a minimum of 100 units/μL, to consume remaining peroxide and terminate the oxidative killing. Serial dilution plate counts were performed from the contents of each vial in sterile saline and inoculated onto trypticase soy agar (TSA) for quantitative culture. Plates were then incubated at 37° C. and counts taken at 24 hours. […] The results are shown in Table 1, as the average of 2 replicates.
The amino acids alone, in the absence of MPO were tested to rule out their microbicidal activity. The results are shown in Table 2 to Table 6, as the average of 2 replicates.
The amino acid analogues alone, in the absence of MPO, were tested to rule out their microbicidal activity. […]
The effect of two-way combinations of individual amino acids with L-isoleucine, as potential enhancing agents, for MPO microbicidal action in the presence of blood, was therefore examined by following the procedure of Example 5.
The Actual CFU observed for the pair is then divided by the Predicted CFU and multiplied by 100 to calculate the % of Predicted value. This value is then to be compared to the threshold value, discussed in the next section, to determine whether the pair are synergistic, antagonistic, or additive.
Calculation of appropriate threshold values for determination of synergism and antagonism was based upon the variability of replicated CFU survivor measures.

Staphylococcus aureus [2] = assay: Control: microbicidal activity of the amino acid or analogue alone (no glucose, MPO, glucose oxidase) in the presence of blood; format: cell-based; settings: MPO 0, GO 0, no glucose, blood; for log reduction at 5000 µM: Staphylococcus aureus, 1 h, read-out: Log Reduction 60 min
Description: As a control to determine the microbicidal activity of the amino acids alone, the foregoing procedure was followed without replication, except in the absence of glucose, MPO, and glucose oxidase.

[3] = MPO 100 μg/mL, AA 20 mM, 30 min
[4] = MPO 100 μg/mL, AA 20 mM, 60 min
[5] = Table 2, amino acid 5 mM (none: 0 mM), blood
[6] = Table 10, in the presence of blood, 50 min
[7] = Table 13, in the presence of blood, 50 min
[8] = amino acid alone 5 mM, without replication
[9] = Table 5, amino acid 5 mM (none: 0 mM), blood
[10] = Table 11, in the presence of blood, 50 min
[11] = Table 14, in the presence of blood, 50 min
[12] = Table 3, amino acid 5 mM (none: 0 mM), blood
[13] = Table 7, amino acid analogue 5 mM, blood

| SMILES | Log 10 (CFU + 1) Survivors (Staphylococcus aureus [1]; MPO 25 μg/mL, AA 5 mM, 30 min) | Log 10 (CFU + 1) Survivors (Staphylococcus aureus [1]; MPO 25 μg/mL, AA 5 mM, 60 min) | Log 10 (CFU + 1) Survivors (Staphylococcus aureus [1]; MPO 25 μg/mL, AA […], 30 min) | Log 10 (CFU + 1) Survivors (Staphylococcus aureus [1]; MPO 25 μg/mL, AA […], 60 min) | Log 10 (CFU + 1) Survivors (Staphylococcus aureus [1]; MPO 100 μg/mL, AA 5 mM, 30 min) | Log 10 (CFU + 1) Survivors (Staphylococcus aureus [1]; MPO 100 μg/mL, AA 5 mM, 60 min) | Log 10 (CFU + 1) Survivors (Staphylococcus aureus [1]; [3]) | Log 10 (CFU + 1) Survivors (Staphylococcus aureus [1]; [4]) | Average Viability CFU/ml 60 min (Staphylococcus aureus [1]; [5]) | Log 10 (CFU + 1) Survivors 60 min (Staphylococcus aureus [1]; [5]) | Log Reduction 60 min (Staphylococcus aureus [1]; [5]) | Average Viability CFU/ml 50 min (Staphylococcus aureus [1]; [6]) | Log Reduction 50 min (Staphylococcus aureus [1]; [6]) | Average Viability CFU/ml 50 min (Staphylococcus aureus [1]; [7]) | Log Reduction 50 min (Staphylococcus aureus [1]; [7]) | log reduction at 5000 µM (Staphylococcus aureus [2]; [8]) | Average Viability CFU/ml 60 min (Staphylococcus aureus [2]; [8]) | Average Viability CFU/ml 50 min (Staphylococcus aureus [1]; [11]) | Log Reduction 50 min (Staphylococcus aureus [1]; [11]) | further results |
| --- | --- | --- | --- | --- | --- | --- | --- | --- | --- | --- | --- | --- | --- | --- | --- | --- | --- | --- | --- | --- |
| NCC(=O)O [Glycine] | 7.2 | 6.8 | 7.3 | 6.9 | 6.0 | 0.0 | 7.0 | 0.0 | 0 CFU/ml | 0.0 | 7.4 | 9100 CFU/ml | 3.4 | 10050 CFU/ml | 3.4 | 0 | 25300000 CFU/ml | – | – | Average Viability CFU/ml 50 min (Staphylococcus aureus [1]; blood): 7050 CFU/ml; Log Reduction 50 min (Staphylococcus aureus [1]; blood): 3.5; CFU survivors, amino acid acting separately (Staphylococcus aureus [1]; standard conditions of Example 5 (2.5 μmol/mL; MPO 4.7 U/mL; GO 4.2 U/mL)): 9300 CFU |
| NC(=O)CC[C@@H](N)C(=O)O [D-Glutamine] | 7.3 | 7.0 | 7.2 | 7.0 | 5.0 | 0.0 | 6.8 | 4.0 | – | – | – | 14750000 CFU/ml | 0.2 | – | – | 0.1 | 20500000 CFU/ml | 15050000 CFU/ml | 0.3 | Average Viability CFU/ml 60 min (Staphylococcus aureus [1]; [9]): 18 CFU/ml; Log Reduction 60 min (Staphylococcus aureus [1]; [9]): 6.1; Average Viability CFU/ml 50 min (Staphylococcus aureus [1]; [10]): 15500000 CFU/ml; Log Reduction 50 min (Staphylococcus aureus [1]; [10]): 0.2 |
| O=C(O)[C@@H]1CCCN1 [L-Proline] | 7.1 | 3.9 | 7.0 | 6.8 | 4.9 | 0.0 | 5.8 | 0.0 | 4850 CFU/ml | 3.7 | 3.7 | 1235000 CFU/ml | 1.3 | 1500000 CFU/ml | 1.2 | 0 | 21600000 CFU/ml | 1835000 CFU/ml | 1.2 | – |
| NCCS(=O)(=O)O [Taurine] | 7.3 | 7.0 | 7.3 | 7.1 | 7.3 | 5.0 | 7.3 | 5.1 | – | – | – | – | – | – | – | 0 | 21600000 CFU/ml | – | – | Average Viability CFU/ml 60 min (Staphylococcus aureus [1]; [12]): 830000 CFU/ml; Log 10 (CFU + 1) Survivors 60 min (Staphylococcus aureus [1]; [12]): 5.9; Log Reduction 60 min (Staphylococcus aureus [1]; [12]): 1.4 |
| C[C@@H](O)[C@H](N)C(=O)O [L-Threonine] | 7.3 | 7.1 | 7.3 | 6.7 | 7.1 | 5.5 | 7.3 | 7.3 | 630000 CFU/ml | 5.8 | 1.6 | – | – | 1415000 CFU/ml | 1.2 | 0 | 23300000 CFU/ml | – | – | – |
| CC(C)CC(N)CC(=O)O (racemic) [DL-Beta-homoleucine] | – | – | – | – | – | – | – | – | – | – | – | – | – | – | – | – | – | – | – | Average Viability CFU/ml 60 min (Staphylococcus aureus [1]; [13]): 0 CFU/ml; Log Reduction 60 min (Staphylococcus aureus [1]; [13]): 7.4; log reduction at 5000 µM (Staphylococcus aureus [2]; amino acid analogue alone 5 mM): 0; Average Viability CFU/ml 60 min (Staphylococcus aureus [2]; amino acid analogue alone 5 mM): 20500000 CFU/ml |
